Experimental findings from ChEMBL document CHEMBL1151310, “Inhibition of cAMP-phosphodiesterase by biflavones of Ginkgo biloba in rat adipose tissue” (J Nat Prod, 1998) are described below.

Assay type in all cases: tissue-based
The species entered for test [1] is Rattus norvegicus. Kind of test: Inhibition of PDE in Sprague-Dawley rat epididymal adipose tissue assessed as [14C]adenosine recovery at 3.6 uM by liquid scintillation counting.
Test [2] can be described thus: (§1) Inhibition of PDE in Sprague-Dawley rat epididymal adipose tissue assessed as [14C]adenosine recovery by liquid scintillation counting.
Test [3] is filed under the species Rattus norvegicus. Kind of test: Inhibition of PDE in Sprague-Dawley rat epididymal adipose tissue assessed as [14C]adenosine recovery at 0.05 to 3 ug/ml by liquid scintillation counting.
For test [4], the species on record is Rattus norvegicus. Kind of test: Inhibition of PDE in Sprague-Dawley rat epididymal adipose tissue assessed as [14C]adenosine recovery at 100 uM by liquid scintillation counting.
The species entered for test [5] is Rattus norvegicus. The test is described as §1. The note with it: dose or concentration not given here.
For test [6], the species on record is Rattus norvegicus. Kind of test: Inhibition of PDE in Sprague-Dawley rat epididymal adipose tissue assessed as [14C]adenosine recovery at 1 mM by liquid scintillation counting.
Test [7] is filed under the species Rattus norvegicus. Nature of the test: Inhibition of PDE in Sprague-Dawley rat epididymal adipose tissue assessed as [14C]adenosine recovery at 200 uM by liquid scintillation counting.

One may read the inhibition as the share of the control response that was lost under treatment. What is called IC50 is the midpoint of a concentration-inhibition curve. `COc1cc(O)c2c(=O)cc(-c3ccc(O)c(-c4c(O)cc(O)c5c(=O)cc(-c6ccc(O)cc6)oc45)c3)oc2c1` [SEQUOIAFLAVONE]: the inhibition in test [1] worked out at 94%. In addition, the IC50 in test [2] was determined as 1010 nM.
On to `COc1ccc(-c2cc(=O)c3c(O)cc(O)c(-c4cc(-c5cc(=O)c6c(O)cc(OC)cc6o5)ccc4OC)c3o2)cc1`, for which the inhibition in test [3] was 10%.
For the compound `COc1ccc(Cc2nccc3cc(OC)c(OC)cc23)cc1OC`, the inhibition in test [4] is more than 90%.
Turning to `O=c1cc(-c2ccc(O)c(-c3c(O)cc(O)c4c(=O)cc(-c5ccc(O)cc5)oc34)c2)oc2cc(O)cc(O)c12` [AMENTOFLAVONE], the IC50 in test [2] is 270 nM. For the same compound, the inhibition in test [5] is 85%.
On to `Cn1c(=O)c2[nH]cnc2n(C)c1=O`, for which, in test [6], the inhibition was more than 90%.
As to `O=c1c(O)c(-c2ccc(O)cc2)oc2cc(O)cc(O)c12`, the inhibition in test [7] is more than 90%.
In the case of `COc1ccc(-c2cc(=O)c3c(O)cc(O)cc3o2)cc1-c1c(O)cc(O)c2c(=O)cc(-c3ccc(O)cc3)oc12` [BILOBETIN], the IC50 in test [2] is 360 nM. In addition, the inhibition in test [5] is 84%.
